Measured values taken from patent publication US20230126310A1 (priority 2020, published 2023).
Counter-ions that a name gives are not always drawn. Numbered stars: 1 amine (or outer) side, 2 acyl side, 3 side chain; on linkers, the order of the positions; unused ones are H or OH. Bridge positions count the residues as written; N and C are the ends. Square brackets hold non-standard residues; d marks the D form. Peptide text beside a SMILES is read from it. I, II: the chains in the order shown. Actinocin(9to1) = Cc1c2oc3c(C)ccc(C(=O)[*:1])c3nc-2c(C(=O)[*:2])c(N)c1=O; NMeV = CN[C@H](C(=O)O)C(C)C; Sar = CNCC(=O)O

Experiments:
[1] = system: SARS-CoV-2; conditions: for % Inh. (% Inhibition of SARS-CoV-2): 10 µM
[2] = system: SARS-CoV-2; assay: microbe, parasite or virus in culture; conditions: Severe acute respiratory syndrome coronavirus 2, Caco-2, 48 h, read-out: % Inh. (% Inhibition of SARS-CoV-2)

Compound	% Inh. (% Inhibition of SARS-CoV-2) [1] [%]	inhibition at 10 µM [2] [%]	further results
MONENSIN SODIUM	–	–	% Inh (% inhibition of virus infection) ([1]; comparative experiments, Examples 1 and 2): 103.2%
CCCCCCCCCCCCCCCC[N+](C)(C)C.[Br-] [CETRIMONIUM BROMIDE]	87.7	–	–
O=C(Nc1ccccc1)N1CCC(Cc2cnc3ccccc3c2)CC1 [PF-750]	85.2	–	–
O=C1NC(=O)c2cc(Nc3ccccc3)c(Nc3ccccc3)cc21 [CGP-52411]	94.5	–	–
O=[N+]([O-])c1ccccc1S(=O)(=O)NCC1CCC(CNC[C@H]2CCc3ccccc3C2)CC1 (stereo partly drawn) [NTNCB]	92.7	–	–
CC(C)(C)c1cc(C(=O)/C(C#N)=N/Nc2cccc(Cl)c2)no1 [ESI-09]	78.0	–	–
CC(C)(C)c1ccc(NC(=O)N2CCN(c3ncccc3Cl)CC2)cc1 [BCTC]	86.4	–	–
Cc1c(Cn2c(C)nc3c(C(=O)O)cc(N4CCOCC4)cc32)cccc1C(F)(F)F [GSK2636771]	88.1	–	–
CO[C@@H](C)Cn1c(=O)n(C)c2cnc3ccc(-c4cncc(C(C)(C)O)c4)cc3c21 [LY3023414]	92.7	–	–
Cc1cc(-c2ccc(CC(=O)Nc3ccc(-c4cccnc4)cc3)cc2)ccn1 [Wnt-C59 (C59)]	82.3	–	–
niguldipine-(S)-(+)	93.0	–	–
Nc1cccc(CNC(=O)c2ccc(Oc3ccc(OCc4cccc(F)c4)cc3)nc2)c1 [YM-244769]	60.4	–	–
N#Cc1cnc2cnc(NCc3cccnc3)cc2c1Nc1ccc(F)c(Cl)c1 [TC-S-7006]	100.7	–	–
Cc1ccc2cc(-c3c(C)ccc(C(=O)c4c(-c5ccccc5)n(C)n(-c5ccccc5)c4=O)c3N)ccc2n1 [AMG-PERK-44]	127.9	–	–
CC(C)(C)c1cc(C(=O)/C=C/c2ccc(C(=O)O)cc2)cc(C(C)(C)C)c1 [CH55]	87.5	–	–
CC(C)(C)n1nc(-c2cccc3ccccc23)c2c(N)ncnc21 [1-naphthyl-PP1]	94.1	–	–
CC(C)(C)Nc1nc(Nc2ccc(C(N)=O)cc2)cc(N)c1C#N [TC-Mps1-12]	65.3	–	–
CC1CCN(C(c2ccc(F)cc2)c2ccc(C(C)C(=O)O)cc2-c2ccc(C(F)(F)F)cc2)CC1 (stereo not drawn) [TC-E-5006]	94.1	–	–
COc1ccc(C(=O)N2CCCc3cc(C4=NNC(=O)SC4C)ccc32)cc1OC (stereo not drawn) [EMD-53998]	79.6	–	–
Nc1cc(C(F)(F)F)c(-c2cc(N3CCOCC3)nc(N3CCOCC3)n2)cn1 [BKM120 (NVP-BKM120)]	97.6	–	–
COCCN1CCN(Cc2ccc(-c3n[nH]c4c3C(=O)c3c(NC(=O)NN5CCOCC5)cccc3-4)cc2)CC1 [RGB-286638 (free base)]	70.2	–	–
CCc1c2c(nc3ccc(O)cc13)-c1cc3c(c(=O)n1C2)COC(=O)[C@]3(O)CC [SN-38]	79.2	–	–
O=C1NC(=O)/C(=C/c2cccc(C(F)(F)F)c2)S1 [SMI-4a]	89.9	–	–

Compound	% Inh. (% Inhibition of SARS-CoV-2) [1] [%]	inhibition at 10 µM [2] [%]	further results
Cc1sc2c(c1C)C(c1ccc(Cl)cc1)=N[C@@H](CC(=O)Nc1ccc(OCCOCCOCCOCCNc3cccc4c3C(=O)N(C3CCC(=O)NC3=O)C4=O)cc1)c1nnc(C)n1-2 (stereo partly drawn) [ARV-825]	52.8	–	–
CCN1/C(=C/C(C)=O)Sc2ccc(OC)cc21 [TG003]	55.4	–	–
Cl.O.O=CN1CCC(C(=O)NCCN2CCC(=C3c4ccccc4C=Cc4ccccc43)CC2)CC1 [AT-1015]	75.4	–	–
CN(C)C(=O)c1ccc(S(=O)(=O)c2ccc(NC(=O)[C@@](C)(O)C(F)(F)F)c(Cl)c2)cc1 [AZD7545]	82.4	–	–
O=C(Nc1ccc(S(=O)(=O)C(F)(F)F)cc1)C1=CCN(c2ncccc2C(F)(F)F)CC1 [A-784168]	60.3	–	–
CC(C)n1nc(-c2ccc3oc(N)nc3c2)c2c(N)ncnc21 [INK 128 (MLN0128)]	84.9	–	–
O=C(NCCCCCCNC(=O)ON=C1CCCCC1)ON=C1CCCCC1 [RHC-80267]	63.9	–	–
CC(C)NC(=O)c1ccc(C#Cc2ccncc2)cn1 [LSN-2463359]	74.9	–	–
COC(=O)C1=C(C)NC(C)=C(C(=O)OCCSc2ccccc2)C1C (stereo not drawn) [PCA-4248]	55.3	–	–
NC1(Cc2ccc(Cl)cc2)CCN(c2ncnc3[nH]ccc23)CC1 [CCT128930]	86.7	–	–
Nc1nccc(Oc2ccc(NC(=O)c3c[nH]cc(-c4ccc(F)cc4)c3=O)cc2F)c1Cl [BMS 794833]	98.3	–	–
COc1cc2ncnc(Nc3cccc(Cl)c3)c2cc1OC [AG-1478 (Tyrphostin AG-1478), Tyrphostin AG-1478]	73.9	–	–
FC(F)(F)c1ccc(CNc2ccc(Cc3c[nH]c4ncccc34)cn2)cc1 [PLX-647]	95.7	–	–
O=C1NC(=O)/C(=C/c2ccc3nccc(-c4ccncc4)c3c2)S1 [GSK1059615]	92.4	–	–
Rupatadine Fumarate	72.1	–	–
GSK9027	64.1	–	–
CNC[C@H](O)[C@@H](O)[C@H](O)[C@H](O)CO.CNC[C@H](O)[C@@H](O)[C@H](O)[C@H](O)CO.C[C@@H](O[C@H]1OCCN(Cc2nn(P(=O)(O)O)c(=O)[nH]2)[C@H]1c1ccc(F)cc1)c1cc(C(F)(F)F)cc(C(F)(F)F)c1 [Fosaprepitant dimeglumine salt]	78.3	–	–
O=C(Cc1ccc(-c2ccc(OCCN3CCOCC3)cc2)cn1)NCc1ccccc1 [KX2-391]	79.9	–	–
COc1ccc2nc3c(c(N)c2c1)CCCC3 [7-methoxytacrine]	58.7	–	–
COc1ccc(OC)c(CN(C(C)=O)c2cc(F)ccc2Oc2ccccc2)c1 [DAA-1106]	91.0	–	–
Taltobulin (trifluoroacetate)	83.8	–	–
c1ccc2sc(SN3CCOCC3)nc2c1 [N-oxydiethylenebenzothiazole-2-sulfenamide]	64.6	–	–
Cc1cccc(CC(=O)N2CCc3c2ccc(-c2cn(C)c4ncnc(N)c24)c3F)n1 [GSK2656157]	95.0	–	–

Compound	% Inh. (% Inhibition of SARS-CoV-2) [1] [%]	inhibition at 10 µM [2] [%]	further results
CN([C@@H](Cc1ccc(OS(=O)(=O)c2cccc3cnccc23)cc1)C(=O)N1CCN(c2ccccc2)CC1)S(=O)(=O)c1cccc2cnccc12 [KN-62]	96.5	–	–
Exatecan Mesylate	70.1	–	–
Cc1nc(Nc2ncc(C(=O)Nc3c(C)cccc3Cl)s2)cc(N2CCN(CCO)CC2)n1 [Dasatinib]	–	52.7	–
CCN1C(=O)CNc2ncc(-c3ccc(-c4nc[nH]n4)nc3C)nc21 [CC-115]	–	96.6	–
CCn1c(=O)c(-c2cc[nH]n2)cc2c(C)nc(N)nc21 [Voxtalisib]	–	84.3	–
O=C(NC1CCN(CCCCC2(C(=O)NCC(F)(F)F)c3ccccc3-c3ccccc32)CC1)c1ccccc1-c1ccc(C(F)(F)F)cc1 [Lomitapide]	–	77.4	–
COC(=O)C1=C(C)NC(C)=C(C(=O)NCCCN2CCC(c3ccccc3)(c3ccccc3)CC2)C1c1ccc([N+](=O)[O-])cc1 (stereo not drawn) [SNAP-5089]	–	72.6	–
Cc1nc(Nc2ccc(F)cc2)nc(N2CCc3ccccc3C2C)c1C (stereo not drawn) [Revaprazan Hydrochloride]	–	90.9	–
Cc1c2oc3c(C)ccc(C(=O)N[C@@H]4C(=O)N[C@H](C(C)C)C(=O)N5CCC[C@H]5C(=O)N(C)CC(=O)N(C)[C@@H](C(C)C)C(=O)O[C@@H]4C)c3nc-2c(C(=O)N[C@@H]2C(=O)N[C@H](C(C)C)C(=O)N3CCC[C@H]3C(=O)N(C)CC(=O)N(C)[C@@H](C(C)C)C(=O)O[C@@H]2C)c(N)c1=O [DACTINOMYCIN] (I: T[dV]P[Sar][NMeV] / II: T[dV]P[Sar][NMeV]; ester I:1-I:C, II:1-II:C; linker I:N-II:N via Actinocin(9to1))	–	74.6	–
CC(C)[C@]12O[C@H]1[C@@H]1O[C@]13[C@]1(O[C@H]1C[C@H]1C4=C(CC[C@@]13C)C(=O)OC4)[C@@H]2O [Triptolide]	–	90.7	–
COc1cc2ncnc(Nc3ccc(F)c(Cl)c3)c2cc1NC(=O)/C=C/CN1CCCCC1 [Dacomitinib (PF299804, PF-00299804), Dacomitinib]	–	85.5	–
C/C(=N\NC(=S)NNC(=S)Nc1ccccc1Cl)c1ccccn1 [N-(2-chlorophenyl)-2-({(2E)-2-[1-(2-pyridinyl)ethylidene]hydrazino}carbothioyl)hydrazinecarbothioamide]	–	101	–
O=C(/C=C/c1cccnc1)NCCCCC1CCN(C(=O)c2ccccc2)CC1 [FK-866]	–	50.9	–
C[C@H]1O[C@@H](O[C@H]2[C@@H](O)C[C@H](O[C@H]3[C@@H](O)C[C@H](O[C@H]4CC[C@@]5(C)[C@H](CC[C@@H]6[C@@H]5C[C@@H](O)[C@]5(C)[C@@H](C7=CC(=O)OC7)CC[C@]65O)C4)O[C@@H]3C)O[C@@H]2C)C[C@H](O)[C@@H]1O [DIGOXIN]	–	70.6	–
CC(=O)OCC1=C(C(=O)O)N2C(=O)[C@@H](NC(=O)Cc3cccs3)[C@H]2SC1 [Cephalothin]	–	53.7	–
NCCNC(=O)c1ccc(Cl)cn1 [lazabemide]	–	67.9	–
O=c1[nH]c2ccccc2n1C1CCN(CCCC(c2ccc(F)cc2)c2ccc(F)cc2)CC1 [PIMOZIDE]	–	94	–
Nc1nc(Cl)nc2c1ncn2[C@@H]1O[C@H](CO)[C@@H](O)[C@H]1O [2-chloroadenosine]	–	72.5	–
COc1ccc(CCCOC(Cn2ccnc2)c2ccc(OC)cc2)cc1 (stereo not drawn) [SKF-96365]	–	70.3	–
CO[C@H]1C[C@H](O[C@@H]2/C(C)=C/C[C@@H]3C[C@@H](C[C@]4(CC[C@H](C)[C@@H](C5CCCCC5)O4)O3)OC(=O)[C@@H]3C=C(C)/C(=N/O)[C@H]4OC/C(=C\C=C\[C@@H]2C)[C@]43O)O[C@@H](C)[C@@H]1O [SELAMECTIN]	–	68.2	–
CCN1CCN(Cc2ccc(-c3cc4c(N[C@H](C)c5ccccc5)ncnc4[nH]3)cc2)CC1 [AEE788]	–	90.9	–
O=C(Nc1ccc(OC(F)(F)F)cc1)c1sccc1NCc1ccnc2ccccc12 [OSI-930]	–	100	–
N#CN1CCCC1 [pyrrolidine-1-carbonitrile]	–	65.9	–
